Results: patent US20070071686A1, “Liquid preparation containing tobramycin” (Pari GmbH, priority 2003, published 2007)

Experiment: Physicochemical characterisation of tobramycin solutions (pH, osmolality, dynamic viscosity, surface tension)
Description: Thus, aqueous solutions of tobramycin with a pH of 6.0 to 6.5 have a 50% greater viscosity (about 2.9 mPa·s) at a concentration of active agent of 180 mg/ml compared to a solution with 100 mg/ml (about 1.8 mPa·s). […] Under standard conditions, the preparations according to the present invention have a viscosity of about 1.4 to 2.3 mPa·s, and preferably a viscosity in the range of about 1.6 to 2.0 mPa·s. A viscosity of about 1.8 mPa·s is most preferred.
11.08 g of tobramycin, 5.41 g of sulfuric acid (96%), 0.2 g of sodium chloride and 90.95 g of water for injection are used as starting materials. All steps are carried out under aseptic conditions and under nitrogen gas. The water is provided first, to which the sulfuric acid is added. Then sodium chloride and the active agent are added one after the other. The mixture is stirred until complete dissolution of all solid components as determined by visual control. This yields about 100 ml of a solution which has a pH of about 6.0, an osmolality of about 0.22 Osmol/l, a dynamic viscosity of about 1.9 mPa·s and a surface tension of about 71 mN/m. This solution is filtered to sterility and filled into an infusion bottle with a volume of 100 ml. This bottle is tightly closed with a pierceable elastomer stopper and secured with an aluminium cap.
10.88 g of tobramycin, 5.41 g of sulfuric acid (96%), 0.2 g sodium chloride, 0.1 g Tween® 80 and 90.95 g of water for injection are used as starting materials. All steps take place under aseptic conditions and nitrogen gas. The water is provided first to which the sulfuric acid is added. Subsequently, tobramycin is added and dissolved at room temperature. Sodium chloride and Tween® are added to this solution. The mixture is stirred until a clear solution is formed. This yields about 100 ml of a solution which has a pH of about 6.2, an osmolality of about 0.22 Osmol/l, a dynamic viscosity of about 1.9 mPa·s and a surface tension of about 43 mN/m. The solution is filtered to sterility and filled aseptically into single dose containers of polypropylene at 2 ml each. […]

In the case of `NC[C@H]1O[C@H](O[C@H]2[C@H](O)[C@@H](O[C@H]3O[C@H](CO)[C@@H](O)[C@H](N)[C@H]3O)[C@H](N)C[C@@H]2N)[C@H](N)C[C@@H]1O` [tobramycin, O-3-amino-3-desoxy-α-D-glucopyranosyl(1→4)-O-[2,6-diamino-2,3,6-tridesoxy-α-D-ribo-hexopyranosyl-(1→6)]-2-deoxystreptamine], the viscosity (aqueous solution, pH 6.0 to 6.5, 100 mg/ml) is reported as “about 1.8 mPa·s”, the viscosity (aqueous solution, pH 6.0 to 6.5, 180 mg/ml) is reported as “about 2.9 mPa·s” and the viscosity (comparable aqueous solution, 120 mg/ml) is reported as “about 2.1 mPa·s”.
